Holding throughout (assay type): biochemical
The target of one assay is Lck (Homo sapiens, UniProt P06239). The assay can be described thus: Lck kinase inhibition (in vitro kinase assay). The protocol:
(§1) Btk kinase activity is determined using a time-resolved fluorescence resonance energy transfer (TR-FRET) methodology. Measurements are performed in a reaction volume of 50 μL using 96-well assay plates. […] The reaction is quenched by the addition of 1.2 equivalents of EDTA (relative to divalent cation) in 25 μL of 1× Lance buffer (Perkin-Elmer). Streptavidin-APC (Perkin-Elmer) and Eu-labeled p-Tyr100 antibody (Perkin-Elmer) in 1× Lance buffer are added in a 25 μL volume to give final concentrations of 100 nM and 2.5 nM, respectively, and the mixture is allowed to incubate for one hour. The TR-FRET signal is measured on a multimode plate reader with an excitation wavelength (λEx) of 330 nm and detection wavelengths (λEm) of 615 and 665 nm. Activity is determined by the ratio of the fluorescence at 665 nm to that at 615 nm. For each compound, enzyme activity is measured at various concentrations of compound. Negative control reactions are performed in the absence of inhibitor in replicates of six, and two no-enzyme controls are used to determine baseline fluorescence levels. Inhibition constants, Ki(app), ware obtained using the program BatchKi (Kuzmic et al. (2000), Anal. Biochem. 286:45-50). IC50s are obtained according to the equation: IC50={Ki(app)/(1+[ATP]/Km^ATP)}+[E]total/2;
(§2) For all kinases, [ATP]=Km^ATP, [Btk]total=0.5 nM and [Lck]total=6 nM.

A further assay concerns the target T1, BTK (Homo sapiens, UniProt Q06187).
T1 construct: purified from insect cells as a full-length construct containing a N-terminal 6×-His tag; His6 (N); made in house; host or cells: insect cells (baculovirus, Sf21)
The assay can be described thus: Btk in vitro inhibitory activity (TR-FRET, mobility shift or radiometric filter binding kinase assay). Conditions: determined using one of the methods outlined in Example 47a, 47b, and 47c. The protocol: as §1, §2
Kinase activity is measured in vitro using electrophoretic mobility shift assay. The kinase reactions are assembled in a total volume of 25 μL in 384 well plates. […] The reaction is incubated for one hour and is quenched by the addition of 45 μL of termination buffer (100 mM HEPES, pH7.5, 0.01% Triton X-100, 30 mM EDTA). The terminated reactions are analyzed using 12 channel LabChip® 3000 microfluidic detection instrument (Caliper Life Sciences). The enzymatic phosphorylation of the peptide results in a change in net charge, enabling electrophoretic separation of product from substrate peptide. As substrate and product peptides are separated, two peaks of fluorescence are observed. Change in the relative fluorescence intensity of the substrate and product peaks is the parameter measured, reflecting enzyme activity. In the presence of an inhibitor, the ratio between product and substrate is altered: the signal of the product decreases, while the signal of the substrate increases.
Activity in each sample is determined as the product to sum ratio (PSR): P/(S+P), where P is the peak height of the product peptide and S is the peak height of the substrate peptide. For each compound, enzyme activity is measured at various concentrations (12 concentrations of compound spaced by 3× dilution intervals). Negative control samples (0%-inhibition in the absence of inhibitor) and positive control samples (100%-inhibition, in the presence of 20 mM EDTA) are assembled in replicates of four and are used to calculate %-inhibition values for each inhibitor at each concentration. Percent inhibition (Pinh) is determined using following equation: Pinh=(PSR0%−PSRinh)/(PSR0%−PSR100%)*100,
where PSRmh is the product sum ratio in the presence of inhibitor, PSR0% is the average product sum ration in the absence of inhibitor and PSR100% is the average product sum ratio in 100%-inhibition control samples;
The IC50 values of inhibitors are determined by 4 parameter sigmoidal dose-response model fitting of the inhibition curves (Pinh versus inhibitor concentration) using XLfit 4 software.
Human Btk kinase (Genbank accession # NP_000052) was purified from insect cells as a full-length construct containing a N-terminal 6×-His tag. Btk kinase activity was determined using a radiometric filter binding assay. Measurements are performed in a low μL reaction volume 384-well assay plates. […]
(In general: TR-FRET usually uses a lanthanide donor and a delayed reading to cut background.)

The target in the next assay is EGFR (Homo sapiens, UniProt P00533). The assay can be described thus: EGFR kinase inhibition (in vitro kinase assay).
EGFR, sequence (P00533 25-1210, species assumed): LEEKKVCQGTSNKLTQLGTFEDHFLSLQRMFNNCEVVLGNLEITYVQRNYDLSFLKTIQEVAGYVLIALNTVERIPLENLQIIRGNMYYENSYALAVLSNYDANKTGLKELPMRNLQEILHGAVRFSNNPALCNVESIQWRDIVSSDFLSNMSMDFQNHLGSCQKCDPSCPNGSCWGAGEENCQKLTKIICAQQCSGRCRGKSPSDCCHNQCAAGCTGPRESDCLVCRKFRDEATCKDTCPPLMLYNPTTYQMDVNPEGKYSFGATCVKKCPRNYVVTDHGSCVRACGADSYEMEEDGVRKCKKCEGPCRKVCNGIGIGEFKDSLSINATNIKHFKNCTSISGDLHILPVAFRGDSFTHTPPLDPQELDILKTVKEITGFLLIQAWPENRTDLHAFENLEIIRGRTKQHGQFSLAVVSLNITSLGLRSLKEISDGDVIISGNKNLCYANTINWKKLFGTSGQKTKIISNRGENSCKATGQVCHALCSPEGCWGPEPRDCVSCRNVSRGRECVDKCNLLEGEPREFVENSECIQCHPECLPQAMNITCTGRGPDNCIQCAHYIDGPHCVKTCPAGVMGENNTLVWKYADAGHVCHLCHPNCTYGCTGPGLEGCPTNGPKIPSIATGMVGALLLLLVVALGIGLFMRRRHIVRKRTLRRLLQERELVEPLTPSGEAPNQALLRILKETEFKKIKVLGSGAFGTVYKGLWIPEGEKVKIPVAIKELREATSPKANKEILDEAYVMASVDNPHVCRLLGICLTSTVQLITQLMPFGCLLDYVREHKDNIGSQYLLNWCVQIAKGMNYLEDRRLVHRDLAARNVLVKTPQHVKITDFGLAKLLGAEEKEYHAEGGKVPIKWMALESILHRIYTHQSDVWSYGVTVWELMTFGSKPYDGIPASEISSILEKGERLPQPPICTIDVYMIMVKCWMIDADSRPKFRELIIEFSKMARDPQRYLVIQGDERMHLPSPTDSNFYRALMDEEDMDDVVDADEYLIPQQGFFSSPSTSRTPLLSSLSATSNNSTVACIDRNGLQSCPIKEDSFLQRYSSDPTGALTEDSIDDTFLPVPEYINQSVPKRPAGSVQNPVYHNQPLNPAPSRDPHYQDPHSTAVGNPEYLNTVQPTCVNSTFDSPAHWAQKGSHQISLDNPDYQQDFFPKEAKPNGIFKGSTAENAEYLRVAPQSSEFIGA

T1 sequence (Q06187 whole entry): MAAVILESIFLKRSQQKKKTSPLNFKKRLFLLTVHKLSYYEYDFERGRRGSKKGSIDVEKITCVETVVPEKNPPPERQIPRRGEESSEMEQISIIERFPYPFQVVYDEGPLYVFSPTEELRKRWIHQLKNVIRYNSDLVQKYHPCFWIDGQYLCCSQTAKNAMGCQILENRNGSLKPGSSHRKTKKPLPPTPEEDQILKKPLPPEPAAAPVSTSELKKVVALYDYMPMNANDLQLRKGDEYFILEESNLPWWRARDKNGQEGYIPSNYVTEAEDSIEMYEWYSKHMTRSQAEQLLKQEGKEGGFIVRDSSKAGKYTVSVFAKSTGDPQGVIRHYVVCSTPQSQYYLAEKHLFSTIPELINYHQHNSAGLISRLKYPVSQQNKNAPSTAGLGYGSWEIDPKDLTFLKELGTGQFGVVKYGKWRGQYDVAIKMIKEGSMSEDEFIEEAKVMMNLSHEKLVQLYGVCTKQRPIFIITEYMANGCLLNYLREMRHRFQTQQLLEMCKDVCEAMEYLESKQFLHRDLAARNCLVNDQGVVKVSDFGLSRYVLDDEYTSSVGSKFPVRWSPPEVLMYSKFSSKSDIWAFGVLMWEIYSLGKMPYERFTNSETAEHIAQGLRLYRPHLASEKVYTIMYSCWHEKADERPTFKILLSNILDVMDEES
Lck, sequence (P06239 whole entry, species assumed): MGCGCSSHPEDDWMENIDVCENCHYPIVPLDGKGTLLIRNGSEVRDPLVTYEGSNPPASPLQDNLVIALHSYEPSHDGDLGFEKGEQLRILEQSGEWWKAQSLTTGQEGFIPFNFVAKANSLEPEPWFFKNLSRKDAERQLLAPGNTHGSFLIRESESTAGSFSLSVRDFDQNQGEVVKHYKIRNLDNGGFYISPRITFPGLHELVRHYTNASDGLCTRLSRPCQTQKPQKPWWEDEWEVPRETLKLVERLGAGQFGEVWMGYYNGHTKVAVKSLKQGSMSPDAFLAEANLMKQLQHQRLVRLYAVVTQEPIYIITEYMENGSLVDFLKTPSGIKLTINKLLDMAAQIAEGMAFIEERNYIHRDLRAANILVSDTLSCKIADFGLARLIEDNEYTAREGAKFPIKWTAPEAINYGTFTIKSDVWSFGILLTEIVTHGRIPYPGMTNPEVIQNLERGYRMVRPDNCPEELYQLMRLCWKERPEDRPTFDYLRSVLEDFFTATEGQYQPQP

Regarding `CC(C)c1cnc(NC(=O)c2ccc(-c3nn([C@@H]4CCN(C(=O)/C=C/CN(C)C5CC5)C4)c4ncnc(N)c34)cc2)s1` [Example 8, (R,E)-4-(4-amino-1-(1-(4-(cyclopropyl(methyl)amino)but-2-enoyl)pyrrolidin-3-yl)-1H-pyrazolo[3,4-d]pyrimidin-3-yl)-N-(5-isopropylthiazol-2-yl)benzamide], the values for the IC50 against Lck, on BTK and at EGFR were less than 100 nM, less than 100 nM and 100 to 1000 nM, respectively.

Regarding `CCCc1cnc(NC(=O)c2ccc(-c3nn([C@@H]4CCN(C(=O)/C=C/CN(C)C5CC5)C4)c4ncnc(N)c34)cc2)s1` [Example 10, (R,E)-4-(4-amino-1-(1-(4-(cyclopropyl(methyl)amino)but-2-enoyl)pyrrolidin-3-yl)-1H-pyrazolo[3,4-d]pyrimidin-3-yl)-N-(5-propylthiazol-2-yl)benzamide], the values for the IC50 against Lck, on BTK and on EGFR were less than 100 nM, less than 1 nM and 100 to 1000 nM, respectively.

In the case of `CN(C/C=C/C(=O)N1CC[C@@H](n2nc(-c3ccc(C(=O)Nc4ncc(C(F)(F)F)s4)cc3)c3c(N)ncnc32)C1)C1CC1` [Example 11, (R,E)-4-(4-amino-1-(1-(4-(cyclopropyl(methyl)amino)but-2-enoyl)pyrrolidin-3-yl)-1H-pyrazolo[3,4-d]pyrimidin-3-yl)-N-(5-(trifluoromethyl)thiazol-2-yl)benzamide], the IC50 (usually the concentration at which inhibition is half-maximal) at Lck is less than 100 nM; on BTK, less than 100 nM; against EGFR, 100 to 1000 nM.

Regarding `CC(C)c1ccnc(NC(=O)c2ccc(-c3nn([C@@H]4CCN(C(=O)/C=C/CN(C)C)C4)c4ncnc(N)c34)cc2)c1` [Example 31, (R,E)-4-(4-amino-1-(1-(4-(dimethylamino)but-2-enoyl)pyrrolidin-3-yl)-1H-pyrazolo[3,4-d]pyrimidin-3-yl)-N-(4-isopropylpyridin-2-yl)benzamide], the IC50 on Lck is less than 100 nM; at BTK, less than 1 nM; against EGFR it was 100 to 1000 nM.

As to `CN(C/C=C/C(=O)N1CC[C@@H](n2nc(-c3ccc(C(=O)Nc4cc(C(F)(F)F)ccn4)cc3)c3c(N)ncnc32)C1)C1CC1` [Example 2, (R,E)-4-(4-Amino-1-(1-(4-(cyclopropyl(methyl)amino)but-2-enoyl)pyrrolidin-3-yl)-1H-pyrazolo[3,4-d]pyrimidin-3-yl)-N-(4-(trifluoromethyl)pyridin-2-yl)benzamide], the IC50 at Lck was 100 to 1000 nM; on BTK, less than 1 nM; against EGFR it was 100 to 1000 nM.

For `CN(C/C=C/C(=O)N1CC[C@@H](n2nc(-c3ccc(C(=O)Nc4cc(C5CC5)ccn4)cc3)c3c(N)ncnc32)C1)C1CC1` [Example 17, (R,E)-4-(4-amino-1-(1-(4-(cyclopropyl(methyl)amino)but-2-enoyl)pyrrolidin-3-yl)-1H-pyrazolo[3,4-d]pyrimidin-3-yl)-N-(4-cyclopropylpyridin-2-yl)benzamide], the IC50 was 100 to 1000 nM on Lck, less than 1 nM at BTK and 1000 to 10000 nM against EGFR.

With `CCCc1ccnc(NC(=O)c2ccc(-c3nn([C@@H]4CCN(C(=O)/C=C/CN(C)C5CC5)C4)c4ncnc(N)c34)cc2)c1` [Example 3, (R,E)-4-(4-amino-1-(1-(4-(cyclopropyl(methyl)amino)but-2-enoyl)pyrrolidin-3-yl)-1H-pyrazolo[3,4-d]pyrimidin-3-yl)-N-(4-propylpyridin-2-yl)benzamide], the IC50 is 100 to 1000 nM against Lck, less than 1 nM on BTK and 100 to 1000 nM at EGFR.

Turning to `CN(C)C/C=C/C(=O)N1CC[C@@H](n2nc(-c3ccc(C(=O)Nc4ccccn4)cc3)c3c(N)ncnc32)C1` [Example 30, (R,E)-4-(4-amino-1-(1-(4-(dimethylamino)but-2-enoyl)pyrrolidin-3-yl)-1H-pyrazolo[3,4-d]pyrimidin-3-yl)-N-(pyridin-2-yl)benzamide], the results for the IC50 against Lck, at BTK and against EGFR were 100 to 1000 nM, less than 1 nM and 100 to 1000 nM, respectively.

In the case of `CCc1ccnc(NC(=O)c2ccc(-c3nn([C@@H]4CCN(C(=O)/C=C/CN(C)C5CC5)C4)c4ncnc(N)c34)cc2)c1` [Example 4, (R,E)-4-(4-amino-1-(1-(4-(cyclopropyl(methyl)amino)but-2-enoyl)pyrrolidin-3-yl)-1H-pyrazolo[3,4-d]pyrimidin-3-yl)-N-(4-ethylpyridin-2-yl)benzamide], the IC50 is 100 to 1000 nM against Lck, less than 1 nM on BTK and 1000 to 10000 nM against EGFR.

On to `CN(C)C/C=C/C(=O)N1CC[C@@H](n2nc(-c3ccc(C(=O)Nc4cc(C#N)ccn4)cc3)c3c(N)ncnc32)C1` [Example 32, (R,E)-4-(4-amino-1-(1-(4-(dimethylamino)but-2-enoyl)pyrrolidin-3-yl)-1H-pyrazolo[3,4-d]pyrimidin-3-yl)-N-(4-cyanopyridin-2-yl)benzamide], for which the IC50 was 100 to 1000 nM against Lck, less than 1 nM on BTK and 100 to 1000 nM against EGFR.

`CCc1cnc(NC(=O)c2ccc(-c3nn([C@@H]4CCN(C(=O)/C=C/CN(C)C5CC5)C4)c4ncnc(N)c34)cc2)s1` [Example 9, (R,E)-4-(4-amino-1-(1-(4-(cyclopropyl(methyl)amino)but-2-enoyl)pyrrolidin-3-yl)-1H-pyrazolo[3,4-d]pyrimidin-3-yl)-N-(5-ethylthiazol-2-yl)benzamide]: the IC50 is less than 100 nM against Lck, less than 100 nM on BTK and 100 to 1000 nM at EGFR.

Consider `CN(C/C=C/C(=O)N1CC[C@@H](n2nc(-c3ccc(C(=O)Nc4ccccn4)cc3)c3c(N)ncnc32)C1)C1CC1` [Example 15, (R,E)-4-(4-amino-1-(1-(4-(cyclopropyl(methyl)amino)but-2-enoyl)pyrrolidin-3-yl)-1H-pyrazolo[3,4-d]pyrimidin-3-yl)-N-(pyridin-2-yl)benzamide], for which the IC50 against Lck was 1000 to 10000 nM; at BTK, less than 100 nM; against EGFR, 100 to 1000 nM.

`CC(C)c1ccnc(NC(=O)c2ccc(-c3nn([C@@H]4CCN(C(=O)/C=C/CN(C)C5CC5)C4)c4ncnc(N)c34)cc2)c1` [Example 18, (R,E)-4-(4-amino-1-(1-(4-(cyclopropyl(methyl)amino)but-2-enoyl)pyrrolidin-3-yl)-1H-pyrazolo[3,4-d]pyrimidin-3-yl)-N-(4-isopropylpyridin-2-yl)benzamide]: the IC50 against Lck is 100 to 1000 nM; on BTK, less than 1 nM; against EGFR, 1000 to 10000 nM.

With `Cc1cnc(NC(=O)c2ccc(-c3nn([C@@H]4CCN(C(=O)/C=C/CN(C)C5CC5)C4)c4ncnc(N)c34)cc2)s1` [Example 6, (R,E)-4-(4-amino-1-(1-(4-(cyclopropyl(methyl)amino)but-2-enoyl)pyrrolidin-3-yl)-1H-pyrazolo[3,4-d]pyrimidin-3-yl)-N-(5-methylthiazol-2-yl)benzamide], the IC50 against Lck is 100 to 1000 nM; on BTK it was less than 100 nM; on EGFR, 1000 to 10000 nM.

These data come from patent US9624224B2, “Inhibitors of Bruton's tyrosine kinase” (Pharmacyclics LLC, priority 2013, dated 2017).
